Results taken from ChEMBL document CHEMBL1201862, “PubChem BioAssay data set” (2004).
Active and inactive are the calls of the source.

Key:
Assay type in all cases: functional
[1] = biological target: T1, Apoptotic protease-activating factor 1 (Homo sapiens, UniProt O14727); assay: SAR analysis of small molecule inhibitors of Apaf-1 in a Fluorescent assay.; details: read-out: IC50_Mean
T1 sequence (O14727 whole entry): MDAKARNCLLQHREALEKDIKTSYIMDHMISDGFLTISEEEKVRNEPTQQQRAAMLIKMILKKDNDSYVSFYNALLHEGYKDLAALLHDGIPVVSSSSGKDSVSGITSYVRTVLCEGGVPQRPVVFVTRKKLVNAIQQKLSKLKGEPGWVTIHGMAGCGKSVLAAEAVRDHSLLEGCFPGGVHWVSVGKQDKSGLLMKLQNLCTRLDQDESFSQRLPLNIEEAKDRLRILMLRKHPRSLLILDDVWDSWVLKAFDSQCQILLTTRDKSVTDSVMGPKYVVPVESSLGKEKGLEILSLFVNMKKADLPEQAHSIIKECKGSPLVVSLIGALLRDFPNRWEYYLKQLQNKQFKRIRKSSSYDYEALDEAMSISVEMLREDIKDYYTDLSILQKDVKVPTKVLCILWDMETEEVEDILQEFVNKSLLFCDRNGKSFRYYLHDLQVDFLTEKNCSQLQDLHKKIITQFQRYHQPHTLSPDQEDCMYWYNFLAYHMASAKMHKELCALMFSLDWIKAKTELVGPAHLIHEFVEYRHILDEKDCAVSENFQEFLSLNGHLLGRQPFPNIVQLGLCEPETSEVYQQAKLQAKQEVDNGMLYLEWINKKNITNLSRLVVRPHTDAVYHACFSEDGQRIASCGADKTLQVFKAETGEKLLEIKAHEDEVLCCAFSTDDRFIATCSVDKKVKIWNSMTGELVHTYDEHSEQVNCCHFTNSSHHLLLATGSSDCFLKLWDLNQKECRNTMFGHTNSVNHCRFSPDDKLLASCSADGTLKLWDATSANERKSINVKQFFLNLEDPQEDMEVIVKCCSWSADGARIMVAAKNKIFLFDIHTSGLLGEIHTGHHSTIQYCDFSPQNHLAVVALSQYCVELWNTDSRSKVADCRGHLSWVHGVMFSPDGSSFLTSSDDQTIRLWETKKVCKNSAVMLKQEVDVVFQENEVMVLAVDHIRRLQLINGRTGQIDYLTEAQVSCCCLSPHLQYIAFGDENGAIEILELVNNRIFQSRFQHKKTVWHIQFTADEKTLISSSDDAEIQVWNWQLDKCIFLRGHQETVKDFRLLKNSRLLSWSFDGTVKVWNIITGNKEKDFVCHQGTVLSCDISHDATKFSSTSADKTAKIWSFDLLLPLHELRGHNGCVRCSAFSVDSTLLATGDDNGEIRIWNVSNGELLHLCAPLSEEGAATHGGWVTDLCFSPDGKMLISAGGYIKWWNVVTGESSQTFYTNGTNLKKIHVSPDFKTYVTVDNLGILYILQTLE

[2] = biological target: Rho-associated protein kinase 1 (Homo sapiens, UniProt Q13464);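 further: measured within a broad kinome-wide panel profiling many kinases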
[3] = biological target: Mitogen-activated protein kinase kinase kinase kinase 5 (Homo sapiens, UniProt Q9Y4K4);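 further: measured as one member of a kinome-spanning kinase panel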
[4] = biological target: Serine/threonine-protein kinase TAO1 (Homo sapiens, UniProt Q7L7X3)
[5] = biological target: Serine/threonine-protein kinase pim-1 (Homo sapiens, UniProt P11309)
[6] = biological target: Serine/threonine-protein kinase Nek2 (Homo sapiens, UniProt P51955)
[7] = biological target: Serine/threonine-protein kinase MRCK alpha (Homo sapiens, UniProt Q5VT25)
[8] = biological target: STE20-like serine/threonine-protein kinase (Homo sapiens, UniProt Q9H2G2)
[9] = biological target: MAP kinase-interacting serine/threonine-protein kinase 2 (Homo sapiens, UniProt Q9HBH9)
[10] = biological target: Serine/threonine-protein kinase BRSK1 (Homo sapiens, UniProt Q8TDC3);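 further: measured within a kinome-wide kinase panel, with the target listed as KIAA1811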
[11] = biological target: Mitogen-activated protein kinase kinase kinase kinase 4 (Homo sapiens, UniProt O95819)
[12] = biological target: Serine/threonine-protein kinase D3 (Homo sapiens, UniProt O94806);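 further: determined within a kinase panel screen, with PRKCN as the panel member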
[13] = biological target: Dual specificity tyrosine-phosphorylation-regulated kinase 1A (Homo sapiens, UniProt Q13627);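 further: measured against DYRK1A as one member of a broad kinome profiling panel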
[14] = biological target: Serine/threonine-protein kinase pim-3 (Homo sapiens, UniProt Q86V86);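 further: value obtained as one member of a broad kinase panel profiling effort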
[15] = biological target: Serine/threonine-protein kinase DCLK1 (Homo sapiens, UniProt O15075);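 further: affinity for DCLK1 (listed as DCAMKL1) measured as one member of a kinome-wide kinase profiling panel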
[16] = biological target: Interleukin-1 receptor-associated kinase 4 (Homo sapiens, UniProt Q9NWZ3)
[17] = biological target: Cyclin-dependent kinase 5 (Homo sapiens, UniProt Q00535);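 further: CDK5 measured as one member of a kinase profiling panel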
[18] = biological target: Serine/threonine-protein kinase PAK 1 (Homo sapiens, UniProt Q13153)
[19] = biological target: MAP kinase-activated protein kinase 3 (Homo sapiens, UniProt Q16644);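 further: value comes from a kinome-wide profiling panel in which MAPKAPK3 is one of the panel members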
LIM domain kinase 1 = LIM domain kinase 1 (Homo sapiens, UniProt P53667); assay: Navigating the Kinome. Panel member name: LIMK1
[20] = biological target: RAC-gamma serine/threonine-protein kinase (Homo sapiens, UniProt Q9Y243)

Chain of LIM domain kinase 1 (P53667 whole entry, the tested form may be a part): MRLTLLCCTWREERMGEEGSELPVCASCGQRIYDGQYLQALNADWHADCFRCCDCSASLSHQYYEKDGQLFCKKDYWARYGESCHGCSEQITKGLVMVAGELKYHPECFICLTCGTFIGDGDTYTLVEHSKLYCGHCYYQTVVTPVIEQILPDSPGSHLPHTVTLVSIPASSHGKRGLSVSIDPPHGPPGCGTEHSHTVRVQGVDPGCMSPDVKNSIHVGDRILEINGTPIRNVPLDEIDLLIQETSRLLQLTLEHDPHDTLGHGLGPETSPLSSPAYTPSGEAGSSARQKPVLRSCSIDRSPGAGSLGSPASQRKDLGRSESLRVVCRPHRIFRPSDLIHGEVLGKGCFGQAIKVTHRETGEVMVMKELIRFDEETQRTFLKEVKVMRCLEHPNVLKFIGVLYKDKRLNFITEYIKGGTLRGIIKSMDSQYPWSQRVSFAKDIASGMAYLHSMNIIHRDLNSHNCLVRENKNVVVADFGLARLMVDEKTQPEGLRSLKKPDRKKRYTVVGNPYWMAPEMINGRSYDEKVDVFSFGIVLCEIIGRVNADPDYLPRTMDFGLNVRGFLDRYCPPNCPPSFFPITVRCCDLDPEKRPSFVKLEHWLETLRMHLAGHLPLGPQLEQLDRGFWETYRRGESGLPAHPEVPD
Chain of Mitogen-activated protein kinase kinase kinase kinase 4 (O95819 whole entry): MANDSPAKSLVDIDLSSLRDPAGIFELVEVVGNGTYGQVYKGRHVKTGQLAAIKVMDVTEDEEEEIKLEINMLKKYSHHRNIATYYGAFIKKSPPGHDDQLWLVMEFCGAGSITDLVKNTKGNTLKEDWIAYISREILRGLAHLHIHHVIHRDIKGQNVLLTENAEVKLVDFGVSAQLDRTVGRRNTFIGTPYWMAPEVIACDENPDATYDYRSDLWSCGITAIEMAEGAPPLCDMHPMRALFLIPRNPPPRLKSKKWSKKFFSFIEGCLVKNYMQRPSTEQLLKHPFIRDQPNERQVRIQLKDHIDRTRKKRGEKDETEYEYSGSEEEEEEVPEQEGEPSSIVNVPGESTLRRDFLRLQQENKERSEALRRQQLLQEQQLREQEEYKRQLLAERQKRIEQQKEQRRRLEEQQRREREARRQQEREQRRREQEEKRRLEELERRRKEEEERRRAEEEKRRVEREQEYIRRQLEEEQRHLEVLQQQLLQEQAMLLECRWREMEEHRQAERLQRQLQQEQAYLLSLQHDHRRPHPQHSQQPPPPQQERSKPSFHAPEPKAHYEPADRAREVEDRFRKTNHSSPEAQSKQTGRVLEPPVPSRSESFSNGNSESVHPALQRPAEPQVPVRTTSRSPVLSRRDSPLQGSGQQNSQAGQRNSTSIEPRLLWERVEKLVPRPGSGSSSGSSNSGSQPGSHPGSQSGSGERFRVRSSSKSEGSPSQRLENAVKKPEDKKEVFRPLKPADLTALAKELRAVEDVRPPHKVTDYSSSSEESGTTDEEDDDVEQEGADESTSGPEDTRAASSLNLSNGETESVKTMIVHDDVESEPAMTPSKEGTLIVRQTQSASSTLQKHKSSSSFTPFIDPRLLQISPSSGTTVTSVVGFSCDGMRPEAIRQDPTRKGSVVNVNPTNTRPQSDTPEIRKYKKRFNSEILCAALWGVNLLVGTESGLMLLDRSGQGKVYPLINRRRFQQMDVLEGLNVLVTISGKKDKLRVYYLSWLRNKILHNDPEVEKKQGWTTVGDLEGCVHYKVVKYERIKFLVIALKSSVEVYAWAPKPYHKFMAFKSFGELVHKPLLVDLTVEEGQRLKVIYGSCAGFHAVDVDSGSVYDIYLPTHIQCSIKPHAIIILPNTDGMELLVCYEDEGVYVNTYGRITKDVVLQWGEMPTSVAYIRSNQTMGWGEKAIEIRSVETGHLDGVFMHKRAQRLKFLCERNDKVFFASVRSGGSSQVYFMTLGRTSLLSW
Chain of MAP kinase-activated protein kinase 3 (Q16644 whole entry, the tested form may be a part): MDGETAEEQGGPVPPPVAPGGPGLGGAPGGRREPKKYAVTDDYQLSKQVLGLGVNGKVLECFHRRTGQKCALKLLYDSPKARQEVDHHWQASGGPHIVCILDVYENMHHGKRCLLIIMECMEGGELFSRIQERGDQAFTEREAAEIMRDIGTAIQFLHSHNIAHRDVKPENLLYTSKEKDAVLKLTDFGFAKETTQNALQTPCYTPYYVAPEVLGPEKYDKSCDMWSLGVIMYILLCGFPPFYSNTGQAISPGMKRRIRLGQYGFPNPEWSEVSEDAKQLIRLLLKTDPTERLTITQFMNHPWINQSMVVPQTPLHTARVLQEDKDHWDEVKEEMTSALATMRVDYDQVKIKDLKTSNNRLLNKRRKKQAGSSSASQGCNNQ
Chain of Rho-associated protein kinase 1 (Q13464 whole entry): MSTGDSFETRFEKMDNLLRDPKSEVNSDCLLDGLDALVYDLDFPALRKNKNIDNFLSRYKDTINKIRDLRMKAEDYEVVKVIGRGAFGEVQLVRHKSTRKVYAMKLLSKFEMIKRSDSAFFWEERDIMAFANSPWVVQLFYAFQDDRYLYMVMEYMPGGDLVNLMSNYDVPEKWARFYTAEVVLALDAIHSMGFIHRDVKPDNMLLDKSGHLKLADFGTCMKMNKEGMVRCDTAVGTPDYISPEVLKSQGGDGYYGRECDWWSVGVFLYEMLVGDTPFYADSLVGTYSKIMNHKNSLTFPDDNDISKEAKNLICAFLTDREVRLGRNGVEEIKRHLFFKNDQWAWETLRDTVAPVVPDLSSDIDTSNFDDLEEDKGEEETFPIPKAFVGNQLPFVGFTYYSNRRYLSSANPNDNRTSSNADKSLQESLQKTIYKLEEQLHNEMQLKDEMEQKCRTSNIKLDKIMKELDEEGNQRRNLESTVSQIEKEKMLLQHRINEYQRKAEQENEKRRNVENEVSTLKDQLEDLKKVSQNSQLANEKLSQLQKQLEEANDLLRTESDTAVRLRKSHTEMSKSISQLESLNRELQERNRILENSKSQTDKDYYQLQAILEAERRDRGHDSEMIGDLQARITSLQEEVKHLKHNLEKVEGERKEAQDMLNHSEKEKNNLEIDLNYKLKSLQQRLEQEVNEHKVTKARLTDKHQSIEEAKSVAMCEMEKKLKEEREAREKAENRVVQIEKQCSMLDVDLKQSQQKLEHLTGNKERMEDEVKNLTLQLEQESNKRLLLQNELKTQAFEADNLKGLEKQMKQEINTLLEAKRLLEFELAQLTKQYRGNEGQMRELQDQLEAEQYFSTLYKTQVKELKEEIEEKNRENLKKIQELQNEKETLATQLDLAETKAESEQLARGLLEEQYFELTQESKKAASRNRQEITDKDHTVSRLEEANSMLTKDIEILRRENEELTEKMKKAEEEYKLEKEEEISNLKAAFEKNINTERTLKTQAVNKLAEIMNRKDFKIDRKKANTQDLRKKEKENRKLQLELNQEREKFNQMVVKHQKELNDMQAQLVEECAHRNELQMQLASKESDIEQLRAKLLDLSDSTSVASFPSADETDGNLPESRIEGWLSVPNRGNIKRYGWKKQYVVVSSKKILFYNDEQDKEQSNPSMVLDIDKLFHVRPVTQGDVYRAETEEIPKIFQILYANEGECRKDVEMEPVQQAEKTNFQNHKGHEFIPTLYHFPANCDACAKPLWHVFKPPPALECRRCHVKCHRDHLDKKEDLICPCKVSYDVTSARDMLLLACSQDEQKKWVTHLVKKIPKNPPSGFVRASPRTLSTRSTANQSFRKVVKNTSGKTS
Chain of Mitogen-activated protein kinase kinase kinase kinase 5 (Q9Y4K4 whole entry): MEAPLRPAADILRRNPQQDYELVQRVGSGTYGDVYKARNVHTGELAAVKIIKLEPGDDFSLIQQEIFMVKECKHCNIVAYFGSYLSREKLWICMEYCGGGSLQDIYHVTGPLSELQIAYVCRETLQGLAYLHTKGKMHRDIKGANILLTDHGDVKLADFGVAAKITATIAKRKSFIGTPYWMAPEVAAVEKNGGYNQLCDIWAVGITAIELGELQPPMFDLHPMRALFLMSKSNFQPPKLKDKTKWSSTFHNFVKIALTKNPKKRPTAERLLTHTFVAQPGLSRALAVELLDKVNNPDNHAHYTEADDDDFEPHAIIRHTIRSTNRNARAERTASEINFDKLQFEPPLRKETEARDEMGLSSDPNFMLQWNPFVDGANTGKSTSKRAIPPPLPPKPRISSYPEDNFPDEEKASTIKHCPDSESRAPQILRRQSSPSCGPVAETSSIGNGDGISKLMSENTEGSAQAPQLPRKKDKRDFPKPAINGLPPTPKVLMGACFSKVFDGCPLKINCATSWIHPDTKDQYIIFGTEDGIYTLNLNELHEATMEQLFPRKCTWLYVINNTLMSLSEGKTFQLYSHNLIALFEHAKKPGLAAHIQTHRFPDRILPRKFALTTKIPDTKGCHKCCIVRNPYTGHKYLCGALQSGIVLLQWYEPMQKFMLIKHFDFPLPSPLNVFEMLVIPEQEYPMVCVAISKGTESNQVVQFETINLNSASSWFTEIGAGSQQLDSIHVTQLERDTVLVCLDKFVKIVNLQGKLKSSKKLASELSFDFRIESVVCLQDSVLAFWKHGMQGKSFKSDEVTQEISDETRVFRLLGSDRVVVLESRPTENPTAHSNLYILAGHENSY
Chain of Cyclin-dependent kinase 5 (Q00535 whole entry): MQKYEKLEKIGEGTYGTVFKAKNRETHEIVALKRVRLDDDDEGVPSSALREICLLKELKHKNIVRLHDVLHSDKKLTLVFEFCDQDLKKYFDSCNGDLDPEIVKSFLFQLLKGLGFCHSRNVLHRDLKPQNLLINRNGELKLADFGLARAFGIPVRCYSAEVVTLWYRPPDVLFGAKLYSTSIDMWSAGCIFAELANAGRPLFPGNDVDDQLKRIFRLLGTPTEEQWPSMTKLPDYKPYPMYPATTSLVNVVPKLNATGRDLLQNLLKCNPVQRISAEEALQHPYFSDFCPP
Chain of Serine/threonine-protein kinase pim-1 (P11309 whole entry): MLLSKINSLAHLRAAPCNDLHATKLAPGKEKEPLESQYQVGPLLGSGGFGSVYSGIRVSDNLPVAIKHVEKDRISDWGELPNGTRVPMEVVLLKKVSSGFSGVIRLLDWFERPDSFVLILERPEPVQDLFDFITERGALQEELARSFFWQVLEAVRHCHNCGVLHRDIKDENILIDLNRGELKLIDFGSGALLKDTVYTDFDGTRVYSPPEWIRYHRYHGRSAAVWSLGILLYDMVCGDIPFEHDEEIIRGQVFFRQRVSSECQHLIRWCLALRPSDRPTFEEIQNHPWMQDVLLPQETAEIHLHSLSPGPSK

**Q.** With `Cc1ccc(-c2nc3cc(NC(=O)c4cccs4)ccc3[nH]2)o1` as the compound, how does the IC50 [1] read?
**A.** Its IC50 is > 100 µM (inactive).

**Q.** What does the source list for `COc1ccc(C=C2SC(=Nc3ccccc3)NC2=O)cc1OC`?
**A.** Ki [2]: > 10 µM (inactive); Ki [3]: 6.31 µM (active); Ki [4]: > 10 µM (inactive); Ki [5]: 1.58 µM (active); Ki [6]: > 10 µM (inactive); Ki [7]: > 10 µM (inactive); Ki [8]: > 10 µM (inactive); Ki [9]: 6.31 µM (active); Ki [10]: > 10 µM (inactive); Ki [11]: 3.98 µM (active); Ki [12]: > 10 µM (inactive); Ki [13]: 6.31 µM (active); Ki [14]: 1 µM (active); Ki [15]: > 10 µM (inactive); Ki [16]: > 10 µM (inactive); Ki [17]: > 10 µM (inactive); Ki [18]: > 10 µM (inactive); Ki [19]: > 10 µM (inactive); Ki (LIM domain kinase 1): > 10 µM (inactive); Ki [20]: > 10 µM (inactive)
